Results reported in ChEMBL document CHEMBL1129740, “Structure-activity relationships of a series of substituted benzamides: potent D2/5-HT2 antagonists and 5-HT1a agonists as neuroleptic agents” (J Med Chem, 1996).

Tests used:
[1] = biological target: T1, 5-hydroxytryptamine receptor 1A (Rattus norvegicus, UniProt P19327); assay: In vitro inhibitory activity against [3H]8-OH-DPAT binding to 5-hydroxytryptamine 1A receptor
T1 sequence (P19327 whole entry): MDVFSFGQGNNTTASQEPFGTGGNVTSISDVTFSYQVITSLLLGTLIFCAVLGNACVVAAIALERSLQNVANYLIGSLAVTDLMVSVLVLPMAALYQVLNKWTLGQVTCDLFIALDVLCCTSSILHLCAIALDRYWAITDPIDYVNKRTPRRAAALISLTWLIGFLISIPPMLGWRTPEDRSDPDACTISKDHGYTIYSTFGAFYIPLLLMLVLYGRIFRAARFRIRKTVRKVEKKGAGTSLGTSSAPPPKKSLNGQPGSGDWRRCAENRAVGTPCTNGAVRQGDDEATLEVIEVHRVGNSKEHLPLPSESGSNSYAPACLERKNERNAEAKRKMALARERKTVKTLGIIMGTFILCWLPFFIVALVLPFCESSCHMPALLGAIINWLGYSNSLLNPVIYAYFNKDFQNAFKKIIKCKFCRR

[2] = biological target: Serotonin 2 (5-HT2) receptor (Rattus norvegicus, UniProt P30994+P08909+P14842); assay: In vitro inhibitory activity against [3H]ketanserin binding to 5-hydroxytryptamine 2 receptor; format: protein assay
[3] = test system: Mus musculus; assay: In vivo effective dose required to antagonize the apomorphine induced climbing response in mice administered intraperitoneally.; format: functional; conditions: ip
[4] = test system: Mus musculus; assay: In vivo effective dose required to antagonize the apomorphine induced climbing response in mice administered perorally; format: functional; conditions: po
[5] = test system: Mus musculus; assay: In vivo effective dose to antagonize the apomorphine induced climbing response in stereotype mouse administered intraperitoneally; format: functional; conditions: ip
[6] = test system: Mus musculus; assay: In vivo effective dose to induce catalepsy in mouse administered perorally.; format: functional; conditions: po
[7] = test system: Mus musculus; assay: In vivo effective dose to antagonize the apomorphine induced climbing response in stereotypy mouse administered perorally; format: functional; conditions: po

Compound	IC50 [1]	IC50 [2]	ED50 [3]	ED50 [4]	ED50 [5]	ED50 [6]	ED50 [7]
COc1ccc(C(=O)NCCCCN2CCN(c3nsc4ccccc34)CC2)cc1.Cl	9 nM	2.3 nM	2.4 mg/kg	> 25 mg/kg			
CC(C)(C)c1ccc(C(=O)NCCCCN2CCN(c3nsc4ccccc34)CC2)cc1.Cl	520 nM	68 nM		> 25 mg/kg			
Cl.Nc1ccc(C(=O)NCCCCN2CCN(c3nsc4ccccc34)CC2)cc1	23 nM	150 nM	> 25 mg/kg				
CN(CCCCN1CCN(c2nsc3ccccc23)CC1)C(=O)c1ccccc1N.Cl	1.2 nM	2.3 nM	> 12 mg/kg				
COc1ccc(Br)c(O)c1C(=O)NCCCCN1CCN(c2nsc3ccccc23)CC1.Cl	26 nM	15 nM	1.5 mg/kg	14.3 mg/kg	15.4 mg/kg	123 mg/kg	87.5 mg/kg
CCc1cc(Cl)c(O)c(C(=O)NCCCCN2CCN(c3nsc4ccccc34)CC2)c1OC.Cl	23 nM	6.3 nM	25.5 mg/kg				
Cl.O=C(NCCCCN1CCN(c2nsc3ccccc23)CC1)c1ccc(C(F)(F)F)cc1	9.1 nM	1.5 nM	12.5 mg/kg	> 25 mg/kg			
Cl.Nc1cccc(C(=O)NCCCCN2CCN(c3nsc4ccccc34)CC2)c1	6.6 nM	2.6 nM					
Cl.Nc1c(F)cccc1C(=O)NCCCCN1CCN(c2nsc3ccccc23)CC1	1.5 nM	0.5 nM	0.9 mg/kg	14.3 mg/kg	8.9 mg/kg	55.5 mg/kg	46.7 mg/kg
Cl.O=C(NCCCCN1CCN(c2nsc3ccccc23)CC1)c1ccccc1[N+](=O)[O-]	6.4 nM	3.7 nM	25 mg/kg				
CCc1cc(Cl)c(OC)c(C(=O)NCCCCN2CCN(c3nsc4ccccc34)CC2)c1OC.Cl	180 nM	30 nM	26 mg/kg				
CCc1cc(Cl)c(OC)c(C(=O)NCCCCN2CCN(c3nsc4ccccc34)CC2)c1O.Cl	69 nM	6.8 nM	> 25 mg/kg				
CC(C)(C)OC(=O)Nc1cccc(C(=O)NCCCCN2CCN(c3nsc4ccccc34)CC2)c1.Cl	12 nM	1.3 nM	> 25 mg/kg				
CC(C)[C@H](Nc1ccccc1C(=O)NCCCCN1CCN(c2nsc3ccccc23)CC1)C(=O)O.Cl	5.4 nM	2.7 nM		17.9 mg/kg	26.9 mg/kg	44.5 mg/kg	59.9 mg/kg
Cl.O=C(NCCCCN1CCN(c2nsc3ccccc23)CC1)c1ccccc1	5.2 nM	2.1 nM	1.1 mg/kg	21.5 mg/kg			
Cl.O=C(NCCCCN1CCN(c2nsc3ccccc23)CC1)c1ccc(Cl)cc1	15 nM	5.6 nM	9.4 mg/kg	> 25 mg/kg			
CC(=O)Nc1ccc(C(=O)NCCCCN2CCN(c3nsc4ccccc34)CC2)cc1.Cl		51 nM	> 25 mg/kg	> 25 mg/kg			
Cl.Nc1ccc(Cl)cc1C(=O)NCCCCN1CCN(c2nsc3ccccc23)CC1	9.4 nM	1.6 nM	< 6 mg/kg	25 mg/kg			
Cl.O=C(NCCCCN1CCN(c2nsc3ccccc23)CC1)c1c(O)ccc(Br)c1O	120 nM	16 nM	6 mg/kg	28.8 mg/kg			
Cc1cccc(C(=O)NCCCCN2CCN(c3nsc4ccccc34)CC2)c1N.Cl		5.8 nM	5.4 mg/kg	37.6 mg/kg			
COc1ccc(Br)c(OC)c1C(=O)NCCCCN1CCN(c2nsc3ccccc23)CC1.Cl	74 nM	12 nM	> 25 mg/kg				
CN(CCCCN1CCN(c2nsc3ccccc23)CC1)C(=O)c1ccccc1.Cl	1.4 nM	3.9 nM	10 mg/kg	22.4 mg/kg			
